Results published in ChEMBL document CHEMBL1149095, “Structure-based optimization of novel azepane derivatives as PKB inhibitors” (J Med Chem, 2004).

How the values were obtained:
[1] = Half life in mice plasma; format: ADME, organism-based; details: mouse
[2] = molecular target: cAMP-dependent protein kinase A (Bos taurus, UniProt P00515+P00517+P05131+P31322); test: Inhibition of bovine protein kinase A (PKA); format: protein-complex assay
[3] = molecular target: RAC-alpha serine/threonine-protein kinase (Homo sapiens, UniProt P31749); test: Inhibition of Protein kinase B alpha
Chain of RAC-alpha serine/threonine-protein kinase (P31749 whole entry): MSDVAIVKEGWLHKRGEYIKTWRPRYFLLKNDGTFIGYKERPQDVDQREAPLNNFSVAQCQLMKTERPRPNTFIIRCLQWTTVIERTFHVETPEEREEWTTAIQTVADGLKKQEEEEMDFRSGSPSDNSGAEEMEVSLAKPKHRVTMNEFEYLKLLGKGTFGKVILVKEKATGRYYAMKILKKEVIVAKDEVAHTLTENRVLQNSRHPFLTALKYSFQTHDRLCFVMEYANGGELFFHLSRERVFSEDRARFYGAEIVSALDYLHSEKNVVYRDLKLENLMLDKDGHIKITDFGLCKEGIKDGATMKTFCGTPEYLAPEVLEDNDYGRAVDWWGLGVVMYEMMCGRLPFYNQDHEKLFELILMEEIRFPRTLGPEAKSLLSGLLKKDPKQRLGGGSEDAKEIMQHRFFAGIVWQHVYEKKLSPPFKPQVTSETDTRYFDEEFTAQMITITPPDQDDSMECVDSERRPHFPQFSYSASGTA

SMILES	half-life [1]	IC50 [2]	IC50 [3]
COc1ccc(O)c(C(=O)c2ccc(C(=O)N[C@@H]3CCCNCC3NC(=O)c3ccncc3)cc2)c1F.Cl.Cl (stereo not given in full)	2.88 days		
COc1ccc(O)c(C(=O)c2ccc(CN[C@@H]3CCCNC[C@H]3NC(=O)c3ccncc3)cc2)c1F.Cl	6.71 days	0.8 µM	3000 nM
COc1ccc(O)c(C(=O)c2ccc(CO[C@@H]3CCCNCC3NC(=O)c3ccncc3)cc2)c1F.Cl.Cl (stereo not given in full)	1.21 days		355 nM
COc1ccc(O)c(C(=O)c2ccc(/C=C/[C@@H]3CCCNC[C@H]3NC(=O)c3ccncc3)cc2)c1F			160 nM
COc1ccc(O)c(C(=O)c2ccc(NC[C@@H]3CCCNCC3NC(=O)c3ccncc3)cc2)c1F (stereo not given in full)		45 µM	25000 nM
COc1ccc(O)c(C(=O)c2ccc(C(=O)O[C@@H]3CCCNCC3NC(=O)c3ccncc3)cc2)c1F.Cl.Cl (stereo not given in full)	< 0.000694 days		
